One test deals with T1, human 15-PGDH (Homo sapiens, UniProt P15428).
T1 construct: purchased R&D System 5660-DH
T1 sequence (P15428 1-266): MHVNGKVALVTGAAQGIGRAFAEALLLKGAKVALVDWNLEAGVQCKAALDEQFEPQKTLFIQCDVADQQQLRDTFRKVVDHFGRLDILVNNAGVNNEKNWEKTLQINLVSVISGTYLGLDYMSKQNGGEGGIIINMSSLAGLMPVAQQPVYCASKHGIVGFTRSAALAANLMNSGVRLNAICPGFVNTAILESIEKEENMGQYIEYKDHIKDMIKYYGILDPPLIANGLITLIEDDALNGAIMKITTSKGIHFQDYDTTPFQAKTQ
As to the kind of experiment: Evaluation of 15-PGDH inhibitory activity (fluorescence enzyme assay, NAD+/PGE2). To be noted: human 15-PGDH enzyme, fluorescence Vmax. Type of test: biochemical. On the procedure: 15-PGDH inhibition activity of Example compounds was measured as follows. 6.7 ng of human 15-PGDH (R&D System# 5660-DH) enzyme (10 µL) was added to a black 96 well plate, 60 µL of buffer (50 mM Tris-HCl, pH 7.5, 0.01% Tween 20) was added, and 10 µL of 200 µM β-Nicotinamide adenine dinucleotide sodium salt (Sigma, Cat# N0632-5G) was added. 10 µL of (10x) compound solution in DMSO was added and reacted for 10 minutes at room temperature.

In a further test the test system is A549 cells. Put plainly: Measurement of PGE2-increasing activity in A549 cells (IL-1β stimulated, PGE2 quantified in supernatant). In kind it is cell-based. The following applies: Homo sapiens, 24 h; concentration of 1 µM of each compound; IL-1β treated A549 cells; read-out: Increased PGE2 production in A549 cells. The essentials: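 PGE2 secreted into the supernatant was measured by immunoassay 24 h after treatment. Before treatment, A549 cells were cultured 24 h in 10% FBS F12K, washed, and placed in serum-free medium containing compound (DMSO 0.1% final) plus or minus IL-1β, incubated at 37 °C, 5% CO2.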

A word on the IC50: it is the midpoint of a concentration-inhibition curve. Read a low IC50 as higher potency. In the case of `CN(C)C1CN(c2cc(-c3cccc4c(C(=O)N5CCCCC5)cnn34)cc(-c3cncc(F)c3)n2)C1` [Example 375, (7-(6-(3-(dimethylamino)azetidin-1-yl)-5'-fluoro-[2,3'-bipyridin]-4-yl)pyrazolo[1,5-a]pyridin-3-yl)(piperidin-1-yl)methanone], the half-inhibitory concentration (IC50) against human 15-PGDH was not above 100 nM. Also, the fold induction at 1 µM with A549 cells was more than 1.5.

`O=C(c1cnn2c(-c3ccc(-c4ccoc4)cc3)cccc12)N1CCCCC1` [Example 302, [7-[4-(3-furyl)phenyl]pyrazolo[1,5-a]pyridin-3-yl]-(1-piperidyl)methanone] returned a half-maximal inhibitory concentration (IC50) on human 15-PGDH not above 100 nM. For the same molecule, in the test on A549 cells, the fold induction at 1 µM is less than 1.5.

On human 15-PGDH, `O=C(NCC1CC1)c1cccc(-c2cccc3c(C(=O)N4CCCCC4)cnn23)c1` [Example 32, N-(cyclopropylmethyl)-3-(3-(piperidine-1-carbonyl)pyrazolo[1,5-a]pyridin-7-yl)benzamide] had an IC50 not above 100 nM. In the test on A549 cells, the fold induction at 1 µM is less than 1.5.

Molecule `O=C(c1cnn2c(-c3cc(F)c(-c4noc(=O)[nH]4)c(F)c3)cccc12)N1CCCCC1` [Example 331, 3-(2,6-difluoro-4-(3-(piperidine-1-carbonyl)pyrazolo[1,5-a]pyridin-7-yl)phenyl)-1,2,4-oxadiazol-5(4H)-one] returned an IC50 against human 15-PGDH not above 100 nM. In addition, the fold induction at 1 µM with A549 cells was more than 1.5.

On human 15-PGDH, `O=C(c1cnn2c(-c3ccc(N4CCCCC4)nc3)cccc12)N1CCCCC1` [Example 110, piperidin-1-yl(7-(6-(piperidin-1-yl)pyridin-3-yl)pyrazolo[1,5-a]pyridin-3-yl)methanone] had an IC50 not above 100 nM. For the same molecule, in the test on A549 cells, the fold induction at 1 µM is less than 1.5.

At human 15-PGDH, `O=C(Nc1ccncc1)c1cncc(-c2cccc3c(C(=O)N4CCCCC4)cnn23)c1` [Example 54, 5-(3-(piperidine-1-carbonyl)pyrazolo[1,5-a]pyridin-7-yl)-N-(pyridin-4-yl)nicotinamide] registered an IC50 not above 100 nM. The fold induction at 1 µM with A549 cells was more than 1.5.

As for `CN1CCN(C(=O)c2cncc(-c3cccc4c(C(=O)N5CCCCC5)cnn34)c2)CC1` [Example 49, (4-methylpiperazin-1-yl)(5-(3-(piperidine-1-carbonyl)pyrazolo[1,5-a]pyridin-7-yl)pyridin-3-yl)methanone], on human 15-PGDH, the IC50 is not above 100 nM. Further, the fold induction at 1 µM with A549 cells is more than 1.5.

`CNc1nn2c(-c3ccc4c(c3)C(=O)NCC4)cccc2c1C(=O)N1CCCCC1` [Example 160] yielded a concentration for half-maximal inhibition (IC50) against human 15-PGDH of more than 1000 nM. Besides, in the test with A549 cells, the fold induction at 1 µM was less than 1.5.

As to `O=C1NCCc2ccc(Nc3cccc4c(C(=O)N5CCCCC5)cnn34)cc21` [Example 211, 7-[[3-(piperidine-1-carbonyl)pyrazolo[1,5-a]pyridin-7-yl]amino]-3,4-dihydro-2H-isoquinolin-1-one], the IC50 against human 15-PGDH was not above 100 nM. Further, the fold induction at 1 µM in the test with A549 cells is more than 1.5.

Turning to `CN1CCC(NC(=O)c2ccc(-c3cccc4c(C(=O)N5CCCCC5)cnn34)cn2)CC1` [Example 81, N-(1-methylpiperidin-4-yl)-5-(3-(piperidine-1-carbonyl)pyrazolo [1,5-a]pyridin-7-yl)picolinamide], the IC50 against human 15-PGDH was not above 100 nM. Besides, the fold induction at 1 µM in the test with A549 cells is more than 1.5.

As for `Nc1cnn(-c2cc(-c3cccc4c(C(=O)N5CCCCC5)cnn34)cc(Br)n2)c1` [Example 356, (7-(2-(4-amino-1H-pyrazol-1-yl)-6-bromopyridin-4-yl)pyrazolo|[1,5-a]pyridin-3-yl)(piperidin-1-yl)methanone], the IC50 against human 15-PGDH was not above 100 nM. Besides, in the test with A549 cells, the fold induction at 1 µM was more than 1.5.

On to `O=C(Nc1cccc2c(C(=O)N3CCCCC3)cnn12)c1cncc(F)c1` [Example 241, 5-fluoro-N-[3-(piperidine-1-carbonyl)pyrazolo[1,5-a]pyridin-7-yl]pyridine-3-carboxamide], for which the IC50 against human 15-PGDH is not above 100 nM. Moreover, in the test on A549 cells, the fold induction at 1 µM is more than 1.5.

For the molecule `O=C1NCc2ccc(-c3cccc4c(C(=O)N5CCC(F)CC5)cnn34)cc21` [Example 155, 6-(3-(4-fluoropiperidine-1-carbonyl)pyrazolo[1,5-a]pyridin-7-yl)isoindolin-1-one], at human 15-PGDH, the IC50 was not above 100 nM. For the same molecule, in the test on A549 cells, the fold induction at 1 µM is more than 1.5.

The values are drawn from EP4653437A2 (Innovo Therapeutics Inc., priority 2023, dated 2024).
